Assays:
[1] = ABT-450 200 mg and 250 mg for 12 to 24 weeks; HCV-infected patients; cited from earlier work
[2] = Effect of a single dose of cyclosporine on DAA steady-state pharmacokinetics; format: in vivo, human (healthy volunteers); conditions: for change in pharmacokinetic parameters: by cyclosporine and tacrolimus, steady-state 3D regimen
[3] = format: in vivo, human (healthy volunteers)

SMILES: Cc1cnc(C(=O)N[C@H]2CCCCC/C=C\[C@@H]3C[C@@]3(C(=O)NS(=O)(=O)C3CC3)NC(=O)[C@@H]3C[C@@H](Oc4nc5ccccc5c5ccccc45)CN3C2=O)cn1 [ABT-450]
- safety and tolerability [1]: safe and well tolerated

SMILES: COc1c(-c2ccc3cc(NS(C)(=O)=O)ccc3c2)cc(-n2ccc(=O)[nH]c2=O)cc1C(C)(C)CO [Dasabuvir M1]
- change in pharmacokinetic parameters [2]: ≤ 34%

SMILES: COc1c(-c2ccc3cc(NS(C)(=O)=O)ccc3c2)cc(-n2ccc(=O)[nH]c2=O)cc1C(C)(C)C [Dasabuvir, dasabuvir]
- change in pharmacokinetic parameters [2]: ≤ 34%

SMILES: COC(=O)N[C@H](C(=O)N1CCC[C@H]1C(=O)Nc1ccc([C@@H]2CC[C@@H](c3ccc(NC(=O)[C@@H]4CCCN4C(=O)[C@@H](NC(=O)OC)C(C)C)cc3)N2c2ccc(C(C)(C)C)cc2)cc1)C(C)C [Ombitasvir, ombitasvir]
- change in steady-state exposures (Cmax and AUC) ([2]; in the presence of cyclosporine or tacrolimus vs absence): ≤ 15%

SMILES: CC(C)c1nc(CN(C)C(=O)N[C@H](C(=O)N[C@@H](Cc2ccccc2)C[C@H](O)[C@H](Cc2ccccc2)NC(=O)OCc2cncs2)C(C)C)cs1 [Ritonavir, ritonavir]
- change in pharmacokinetic parameters [2]: ≤ 34%

SMILES: C=CC[C@@H]1/C=C(\C)C[C@H](C)C[C@H](OC)[C@H]2O[C@@](O)(C(=O)C(=O)N3CCCC[C@H]3C(=O)O[C@H](/C(C)=C/[C@@H]3CC[C@@H](O)[C@H](OC)C3)[C@H](C)[C@@H](O)CC1=O)[C@H](C)C[C@@H]2OC [tacrolimus]
- AUC(0-inf) ([3]; human, whole blood, oral, 2 mg): 118 ng·h/mL
- Cmax ([3]; human, whole blood, oral, 2 mg): 11 ng/mL
- Tmax ([3]; human, whole blood, oral, 2 mg): 1.8 h
- concentration at 12 h ([3]; human, whole blood, oral, 2 mg): 1.6 ng/mL
- concentration at 24 h ([3]; human, whole blood, oral, 2 mg): 1.1 ng/mL
- delay in Tmax ([3]; in the presence of the 3D regimen at steady state vs tacrolimus alone): 3.2 h
- dose-normalized C24 with 3D relative to dose-normalized C12 alone ([3]; tacrolimus with steady-state 3D regimen vs tacrolimus alone): 11 fold

Reference: paper PMC5024008 (American Journal of Transplantation, 2015)
